Test results as given in US20090253709A1 (NATIONAL DEFENSE MEDICAL CENTER, priority 2008, published 2009).

Test system: H1299
Assay: MTT assay in H1299 cells
Type: cell-based
Conditions: for cytotoxicity to H1299 cancer cells compared with mitoxantrone: MTT assay
Procedure, shortened: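 H1299 cells, 2×10^3 per well, treated with drug 48 h. MTT (5 mg/ml stock) added for 4 h at 37° C, then SDS/DMF lysis overnight; absorbance at 570 nm gives viability, used alongside SEAP reporter readout to correct for cell number.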

Structure (SMILES)	cytotoxicity to H1299 cancer cells compared with mitoxantrone	MTT assay (cellular cytotoxicity) (low concentration (1 μM)) [%]
O=C(CN1CCCCC1)Nc1ccc2c(c1)C(=O)c1cc(NC(=O)CN3CCCCC3)ccc1C2=O [Compound 7, 2,7-Bis[2-(piperidino)acetamido]anthraquinone]	better than	–
CCNCC(=O)Nc1ccc2c(c1)C(=O)c1cc(NC(=O)CNCC)ccc1C2=O [Compound 10, 2,7-Bis[2-(ethylamino)acetamido]anthraquinone]	better than	–
O=C(Cc1ccccc1)Nc1ccc2c(c1)C(=O)c1cc(NC(=O)Cc3ccccc3)ccc1C2=O [Compound 30, 2,7-Bis(phenylacetamido)anthraquinone]	–	107±7
O=C1c2ccc(NC(=O)C3CC3)cc2C(=O)c2cc(NC(=O)C3CC3)ccc21 [Compound 32, 2,7-Bis(cyclopropanecarbonamido)anthraquinone]	better than	–
